Values of other authors in patent US6551555B2, “Apparatus with a chemical indicator for indicating exposure to an oxidative sterilant or disinfectant” (Ethicon, Inc., priority 1997, dated 2003).

Details: Sigma-Aldrich catalog number 229288

## CN(C)c1ccc(C(=C2C=CC(=[N+](C)C)C=C2)c2ccc(N(C)C)cc2)cc1 [crystal violet]
  toxicity hazards: toxic and may cause cancer, heritable genetic damage and irritate the eyes, respiratory system and skin
